Laboratory results from patent publication US20040038894A1, “Compounds for modulating cell negative regulations and biological applications thereof” (INSTITUT NATIONAL DE LA SANTE ET DE LA RECHERCHE MEDICALE …, priority 1996, published 2004).
Each block holds one molecule with its values, some of them ahead of it. Where no end group is shown, it is not given here. [ ]: non-standard residue; d: D form. The star is where a group is joined. Biotin = O=C1N[C@H]2[C@H](CS[C@H]2CCCCC(=O)*)N1; pY = N[C@@H](Cc1ccc(OP(=O)(O)O)cc1)C(=O)O

Tests used:
[1] = test system: melanoma-specific CTL clones; experiment: Auto-presentation assay, TNF release; type: cell-based, human; conditions: clone M117-14, TYR peptide 10 μM, mAb without cross-linking
Procedure: (§1) 5×10^4 CTLs were incubated with indicated concentrations of peptides in 100 μl final volume. After two hours, supernatants were harvested to test the TNF secretion and lysis was estimated by flow cytometry on the basis of size/granularity patterns as previously described. TNF determinations were performed by a biologic assay using cytotoxicity on the sensitive WEHI 164 clone 13 cells, as compared to a standard curve established using rTNF-β (Genzyme).
Results are illustrated by FIG. 13 showing that CD94-NKG2A inhibits the antigen-specific TNF production by CTL clones. In FIG. 13, the melanoma specific CTL clones M117-14 and 7-10 were stimulated in an auto-presentation assay with their respective cognate peptides (i.e.:EAA for 7-10 and M77-84, and TYR for M117-14) at a concentration of 10 μM, in the presence or indicated mAbs. TNF release was assessed in the supernatant by a biological assay using the WEHI 164, a TNF sensitive cell line. Data from one representative experiment out of five, are expressed as mean TNF (pg/ml)±SD of triplicate samples.

[2] = test system: melanoma-specific CTL clones; experiment: Auto-presentation assay, CTL lysis; type: cell-based, human; conditions: clone M117-14, TYR peptide, 2 hours
Procedure: as §1
Results are illustrated by FIG. 14 showing the negative regulation of antigen-induced CTL clone cytotoxicity by CD94-NKG2A. In FIG. 14, cells from the melanoma specific CTL clone M117-14 were stimulated in an auto-presentation assay with the indicated concentrations of cognate peptide (TYR). Cytotoxicity was measured, in the presence or absence of anti-CD94 mAb (HB-3B1). Cell lysis was estimated by flow cytometry on the basis of size/granularity patterns after auto-presentation in a short term assay (2 hours). Data shown are representative from 5 independent experiments.

[3] = molecular target: T1, GST-SHIP.SH2 fusion protein (murine, UniProt Q9ES52 8-104); experiment: SPR (BIAcore), phosphopeptide (25 RU) on streptavidin chip, FIG. 16
T1 construct: also called SH2 domain of SHIP; not shown: Glutathione S-transferase (GST) fusion partner
T1 sequence (looked up): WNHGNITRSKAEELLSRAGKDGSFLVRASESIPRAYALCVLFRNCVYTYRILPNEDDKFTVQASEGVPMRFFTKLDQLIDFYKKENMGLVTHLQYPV
Procedure: Surface plasmon resonance measurements were performed on a BIAcore apparatus (BIAcore). The GST-SHP1.SH2(NC), GST-SHP2.SH2(NC) and GST-SHIP.SH2 fusion proteins generated from the murine phosphatase cDNAs, were purified from DH5α lysates as previously described. Before their use in BIAcore experiments, fusion proteins were dialyzed in HBS buffer pH 7.4 (10 mM HEPES, 150 mM NaCl, 3.4 mM EDTA). Protein purity was assessed by 12.5% SDS-PAGE, and Coomassie blue staining. The running buffer used in all BIAcore experiments consisted of HBS buffer supplemented with 0.05% surfactant P20. Equilibrium constant determination (koff and kₒₙ) was performed using BIAevaluation 2.0 software. The equilibrium dissociation constants KD were calculated from the koff/kₒₙ ratio.
The measurement of phosphorylated peptide binding to GST-SHP-1.SH2(N+C) and GST-SHP-2.SH2(N+C) fusion proteins was performed at a constant 5 μl/min flow rate. […] Results are expressed as corrected resonance units (CRU) corresponding to the raw RU values after subtraction of background RU value due to the injection medium, koff and kₒₙ were calculated from three independent measurements using the BIAevaluation 2.0 software. In addition, kₒₙ was calculated as the slope of the curve kg=kₒₙ×c−koff, where koff is the off-rate constant and c is the concentration of the soluble recombinant GST fusion proteins. […]

[4] = molecular target: T2, SHIP polyinositol phosphatase from RBL-2H3 cell lysates (rat (cell line RBL-2H3), UniProt P97573 1-1190, limits assumed); experiment: cell lysate adsorption to peptide beads, immunoblot (RBL-2H3), FIG. 15A
T2 construct: Detected by immunoblot with anti-SHIP antiserum
T2 sequence (looked up): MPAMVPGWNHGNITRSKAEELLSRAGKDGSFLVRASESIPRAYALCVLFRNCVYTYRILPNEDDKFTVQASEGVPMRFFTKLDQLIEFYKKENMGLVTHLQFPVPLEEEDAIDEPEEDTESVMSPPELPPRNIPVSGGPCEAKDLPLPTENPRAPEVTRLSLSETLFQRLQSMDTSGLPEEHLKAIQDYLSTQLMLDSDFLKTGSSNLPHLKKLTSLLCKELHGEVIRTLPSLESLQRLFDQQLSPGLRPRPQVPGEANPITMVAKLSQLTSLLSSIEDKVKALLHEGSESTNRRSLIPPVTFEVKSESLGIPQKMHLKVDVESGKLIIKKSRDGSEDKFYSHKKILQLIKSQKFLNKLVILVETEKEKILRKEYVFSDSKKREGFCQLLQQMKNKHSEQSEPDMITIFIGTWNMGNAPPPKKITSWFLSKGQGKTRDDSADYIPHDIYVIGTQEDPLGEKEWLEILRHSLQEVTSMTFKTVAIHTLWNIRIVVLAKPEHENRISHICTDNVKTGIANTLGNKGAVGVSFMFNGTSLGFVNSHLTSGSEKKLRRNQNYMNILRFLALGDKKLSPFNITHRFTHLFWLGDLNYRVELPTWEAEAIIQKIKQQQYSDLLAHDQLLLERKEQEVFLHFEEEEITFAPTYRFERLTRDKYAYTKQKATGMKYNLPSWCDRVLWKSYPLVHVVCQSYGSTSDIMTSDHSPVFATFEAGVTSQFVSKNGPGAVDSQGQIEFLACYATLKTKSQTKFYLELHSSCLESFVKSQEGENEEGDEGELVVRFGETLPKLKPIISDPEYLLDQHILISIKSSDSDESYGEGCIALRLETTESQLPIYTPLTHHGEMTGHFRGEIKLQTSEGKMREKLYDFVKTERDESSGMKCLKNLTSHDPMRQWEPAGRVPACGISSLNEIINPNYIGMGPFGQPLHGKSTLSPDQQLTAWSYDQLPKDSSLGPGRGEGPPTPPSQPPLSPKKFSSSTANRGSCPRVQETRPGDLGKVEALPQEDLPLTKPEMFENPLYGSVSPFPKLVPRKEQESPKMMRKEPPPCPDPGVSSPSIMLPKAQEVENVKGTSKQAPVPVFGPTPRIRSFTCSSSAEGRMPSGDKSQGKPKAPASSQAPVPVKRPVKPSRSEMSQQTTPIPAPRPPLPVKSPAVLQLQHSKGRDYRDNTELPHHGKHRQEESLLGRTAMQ
Procedure: In an attempt to characterize the function of these putative ITIMs, cell lysates were incubated with phosphorylated and nonphosphorylated synthetic peptides corresponding to the N-terminal and the C-terminal I/VxYxxL stretches present in NKG2A intracytoplasmic domain. Cell lysates absorbed to peptides were then assayed by immunoblotting for the presence of the phosphatases known to interact with phosphorylated ITIMs, i.e. the protein tyrosine phosphatases SHP-1 and SHP-2, as well as the polyinositol phosphate phosphatase, SHIP. In parallel, lysates adsorption were performed using control peptides corresponding to ITIMs present in Ig-like ITIM bearing receptors such as human KIRs (p58.2/CD158b, a receptor for HLA-Cw3) and mouse FcγRIIB, as well as in mouse lectin-like ITIM-bearing receptor, such as Ly-49A.
As shown in FIG. 15A (lanes 1 and 2), both N- and C-terminal I/VxYxxL stretches present in NKG2A associate with SHP-1 and SHP-2 in vitro, but no binding to SHIP was detected. Similar patterns of association were obtained using the phosphorylated ITIM peptides of […] and p58.2 KIR (FIG. 15A, lanes 3 to 5). In contrast, FcγRIIB phosphorylated ITIM peptides also associate with SHIP (FIG. 15A, lane 6). No association of phosphatases with nonphosphorylated peptides corresponding to FcγRIIB (FIG. 15A, lane 7) and NKG2A N- and C-terminal I/VxYxxL stretches was detected. When nonphosphorylated and phosphorylated peptides were used to adsorb lysates prepared from ³⁵S methionine/cysteine-labeled cells, only two bands around 64 and 68 kDa selectively associate with both phosphorylated NKG2A N- and C-terminal I/VxYxxL stretches, as compared to nonphosphorylated ones (FIG. 15B). The 64 and 68 kDa proteins which bind to phosphorylated NKG2A peptides correspond to SHP-1 and SHP-2 apparent molecular weight respectively, supporting the immunoblotting results. Therefore, our results define the two NKG2A I/VxYxxL stretches as ITIMs which appear to function similarly to other ITIMs present in inhibitory receptors for MHC class I molecules, i.e. KIRs and Ly-49 molecules. Using recombinant soluble tandem SH2 domains of SHP-1 and SHP-2, we confirmed by surface plasmon resonance that both NKG2A ITIM phosphopeptides directly associate with the SH2 domains of SHP-1 and SHP-2, but not with the SH2 domain of SHIP (FIG. 16).

Molecule: Y1MDGTMSQV9 [TYR]
TNF production [1]: released TNF
CTL lysis (auto-toxicity) [2]: lysed in a dose-dependent manner

binding result [3]: no binding (tested: 100 nM)
binding result [4]: no binding
B1: phosphorylated NKG2A N-term peptide (N-terminal ITIM) (peptide)
peptide: Biotin-MDNQGVI[pY]SDLNL
notes: also called NKG2-A N-terminal ITIM; NKG2A/B phosphorylated ITIM peptide
